Active and inactive are the calls of the source. No cut-off for these calls is given here.
Columns and labels:
[1] = tested on: RAW264.7; test: Cytotoxicity activity mouse RAW264.7 cells assessed as effect on cell viability at 25 uM incubated for 24 hrs by MTT assay; type: toxicity, cell-based; conditions: raw264.7, 24 h
[2] = tested on: RAW264.7; test: Anti-inflammatory activity in mouse RAW264.7 cells assessed as inhibition of LPS-induced iNOS […] expression at 25 uM preincubated with compound for 1 hr followed by LPS stimulation and measured after 24 hrs by Western blot analysis; type: functional, cell-based; conditions: time 25.0 hrs
[3] = tested on: RAW264.7; test: Antiinflammatory activity in mouse RAW264.7 cells assessed as inhibition of LPS-induced IL-6 release at 25 uM preincubated with compound for 1 hr followed by LPS-induction and measured after 24 hrs by ELISA analysis; type: functional, cell-based; conditions: time 25.0 hrs
[4] = tested on: Mus musculus; test: Antiinflammatory activity in LPS-induced acute lung injury BALB/c mouse model assessed as reduction in lung edema at 20 mg/kg, po administered for 3 days followed by LPS-induction for 1 hr and measured after 6 hrs by H and E staining based analysis; type: functional, organism-based; conditions: time 79.0 hrs
[5] = tested on: RAW264.7; test: Anti-inflammatory activity in mouse RAW264.7 cells assessed as inhibition of LPS-induced COX-2 […] expression at 25 uM preincubated with compound for 1 hr followed by LPS stimulation and measured after 24 hrs by Western blot analysis; type: functional, cell-based; conditions: time 25.0 hrs
[6] = tested on: Mus musculus; test: Antiinflammatory activity in LPS-induced acute lung injury BALB/c mouse model assessed as reduction in W/D weight gain ratio in lung at 5 to 20 mg/kg, po administered for 3 days followed by LPS-induction for 1 hr and measured after 6 hrs; type: functional, organism-based; conditions: dose 5-20 mg/kg, time 79.0 hrs
[7] = tested on: RAW264.7; test: Antiinflammatory activity in mouse RAW264.7 cells assessed as inhibition of LPS-induced IL-6 production at 25 uM preincubated with compound for 1 hr followed by LPS-induction and measured after 24 hrs by ELISA analysis relative to control; type: functional; conditions: time 25 hrs
[8] = tested on: Mus musculus; test: Antiinflammatory activity in LPS-induced po dosed acute lung injury BALB/c mouse model assessed as inhibition of iNOS expression administered for 3 days followed by LPS-induction for 1 hr and measured after 6 hrs by Western blot analysis; type: functional, organism-based; conditions: dose 5-20 mg/kg, time 79.0 hrs
[9] = tested on: Mus musculus; test: Antiinflammatory activity in LPS-induced acute lung injury BALB/c mouse model assessed as reduction in cell infiltration in lung at 20 mg/kg, po administered for 3 days followed by LPS-induction for 1 hr and measured after 6 hrs by H and E staining based analysis; type: functional, organism-based; conditions: time 79.0 hrs
[10] = molecular target: Transcription factor p65 (Mus musculus) (UniProt Q04207); test: Inhibition of NF-kappaB signaling pathway in LPS-induced mouse RAW264.7 cells assessed as reduction in phosphorylated NF-kappaB to p65 relative expression at 6.25 to 25 uM pretreated with compound for 1 hr followed by LPS-induction and measured after 24 hrs by Western blot analysis; type: cell-based; conditions: dose 6.25-25 µM, time 25.0 hrs
Chain of Transcription factor p65 (Mus musculus) (Q04207 whole entry): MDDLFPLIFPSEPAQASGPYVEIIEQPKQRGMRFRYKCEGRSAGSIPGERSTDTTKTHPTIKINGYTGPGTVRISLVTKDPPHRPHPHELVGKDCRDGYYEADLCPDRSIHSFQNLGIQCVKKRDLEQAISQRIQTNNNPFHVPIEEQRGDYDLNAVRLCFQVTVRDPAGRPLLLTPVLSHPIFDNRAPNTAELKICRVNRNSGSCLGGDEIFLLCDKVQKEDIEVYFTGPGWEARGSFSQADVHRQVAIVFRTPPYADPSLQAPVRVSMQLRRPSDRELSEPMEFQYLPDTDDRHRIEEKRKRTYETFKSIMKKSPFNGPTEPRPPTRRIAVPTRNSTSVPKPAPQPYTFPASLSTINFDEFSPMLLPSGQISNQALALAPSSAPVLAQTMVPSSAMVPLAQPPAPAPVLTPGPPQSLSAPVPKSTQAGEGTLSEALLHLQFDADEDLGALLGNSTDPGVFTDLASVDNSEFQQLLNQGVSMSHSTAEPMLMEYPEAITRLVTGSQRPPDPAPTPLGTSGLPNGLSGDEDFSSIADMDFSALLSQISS

[11] = tested on: Mus musculus; test: Antiinflammatory activity in LPS-induced acute lung injury BALB/c mouse model assessed as downregulation of IL-6 level in BALF at 5 to 20 mg/kg, po administered for 3 days followed by LPS-induction for 1 hr and measured after 6 hrs by ELISA analysis; type: functional, organism-based; conditions: dose 5-20 mg/kg, time 79.0 hrs
[12] = tested on: RAW264.7; test: Antiinflammatory activity in mouse RAW264.7 cells assessed as reduction in LPS-induced p38 phosphorylation at 6.25 to 25 uM preincubated with compound for 1 hr followed by LPS-induction and measured after 24 hrs by Western blot analysis; type: functional, cell-based; conditions: dose 6.25-25 µM, time 25.0 hrs
[13] = tested on: RAW264.7; test: Anti-inflammatory activity in mouse RAW264.7 cells assessed as inhibition of LPS-induced COX-2 […] expression preincubated with compound for 1 hr followed by LPS stimulation and measured after 24 hrs by Western blot analysis; type: functional, cell-based; conditions: dose 6.25-25 µM, time 25.0 hrs
[14] = tested on: Mus musculus; test: Antiinflammatory activity in LPS-induced acute lung injury BALB/c mouse model assessed as reduction in NO production in BALF at 20 mg/kg, po administered for 3 days followed by LPS-induction for 1 hr and measured after 6 hrs by Griess reagent based analysis; type: functional, organism-based; conditions: time 79.0 hrs
[15] = tested on: RAW264.7; test: Antiinflammatory activity in mouse RAW264.7 cells assessed as reduction in LPS-induced IL-6 production preincubated with compound for 1 hr followed by LPS-induction and measured after 24 hrs by ELISA analysis relative to control; type: functional, cell-based
[16] = tested on: RAW264.7; test: Antiinflammatory activity in mouse RAW264.7 cells assessed as reduction in LPS-induced JNK phosphorylation at 6.25 to 25 uM preincubated with compound for 1 hr followed by LPS-induction and measured after 24 hrs by Western blot analysis; type: functional, cell-based; conditions: dose 6.25-25 µM, time 25.0 hrs
[17] = tested on: Mus musculus; test: Antiinflammatory activity in LPS-induced po dosed acute lung injury BALB/c mouse model assessed as inhibition of COX-2 expression administered for 3 days followed by LPS-induction for 1 hr and measured after 6 hrs by Western blot analysis; type: functional, organism-based; conditions: dose 5-20 mg/kg, time 79.0 hrs
[18] = molecular target: Transcription factor p65 (Mus musculus) (UniProt Q04207); test: Inhibition of NF-kappaB p65 phosphorylation in mouse RAW264.7 cells at 6.25 to 25 uM pretreated with compound for 1 hr followed by LPS-induction and measured after 24 hrs by Western blot analysis; type: cell-based; conditions: dose 6.25-25 µM, time 25.0 hrs
[19] = tested on: RAW264.7; test: Antiinflammatory activity in mouse RAW264.7 cells assessed as reduction in LPS-induced TNF-alpha production preincubated with compound for 1 hr followed by LPS-induction and measured after 24 hrs by ELISA analysis relative to control; type: functional, cell-based
[20] = tested on: Mus musculus; test: Antiinflammatory activity in LPS-induced acute lung injury BALB/c mouse model assessed as downregulation of TNF-alpha level in BALF at 20 mg/kg, po administered for 3 days followed by LPS-induction for 1 hr and measured after 6 hrs by ELISA analysis; type: functional, organism-based; conditions: time 79.0 hrs
[21] = tested on: RAW264.7; test: Anti-inflammatory activity in mouse RAW264.7 cells assessed as inhibition of LPS-induced iNOS […] expression preincubated with compound for 1 hr followed by LPS stimulation and measured after 24 hrs by Western blot analysis; type: functional, cell-based; conditions: dose 6.25-25 µM, time 25.0 hrs
[22] = tested on: Mus musculus; test: Antiinflammatory activity in LPS-induced acute lung injury BALB/c mouse model assessed as downregulation of TNF-alpha level in BALF at 5 to 20 mg/kg, po administered for 3 days followed by LPS-induction for 1 hr and measured after 6 hrs by ELISA analysis; type: functional, organism-based; conditions: dose 5-20 mg/kg, time 79.0 hrs
[23] = tested on: RAW264.7; test: Inhibition of IkappaB phosphorylation in mouse RAW264.7 cells at 6.25 to 25 uM pretreated with compound for 1 hr followed by LPS-induction and measured after 24 hrs by Western blot analysis; type: cell-based; conditions: dose 6.25-25 µM, time 25.0 hrs
[24] = tested on: Mus musculus; test: Antiinflammatory activity in LPS-induced acute lung injury BALB/c mouse model assessed as improvement in alveolar structure at 20 mg/kg, po administered for 3 days followed by LPS-induction for 1 hr and measured after 6 hrs by H and E staining based analysis; type: functional, organism-based; conditions: time 79.0 hrs
[25] = tested on: RAW264.7; test: Inhibition of NF-kappaB signaling pathway in LPS-induced mouse RAW264.7 cells assessed as reduction in phosphorylated IkappaB to IkappaB relative expression at 6.25 to 25 uM pretreated with compound for 1 hr followed by LPS-induction and measured after 24 hrs by Western blot analysis; type: cell-based; conditions: dose 6.25-25 µM, time 25.0 hrs
[26] = tested on: RAW264.7; test: Antiinflammatory activity in mouse RAW264.7 cells assessed as reduction in LPS-induced ERK phosphorylation at 6.25 to 25 uM preincubated with compound for 1 hr followed by LPS-induction and measured after 24 hrs by Western blot analysis; type: functional, cell-based; conditions: dose 6.25-25 µM, time 25.0 hrs
[27] = tested on: Mus musculus; test: Antiinflammatory activity in LPS-induced acute lung injury BALB/c mouse model assessed as downregulation of IL-6 level in BALF at 20 mg/kg, po administered for 3 days followed by LPS-induction for 1 hr and measured after 6 hrs by ELISA analysis; type: functional, organism-based; conditions: time 79.0 hrs
[28] = tested on: RAW264.7; test: Antiinflammatory activity in mouse RAW264.7 cells assessed as inhibition of LPS-induced IL-6 secretion by measuring fold change at 25 uM preincubated with compound for 1 hr followed by LPS-induction and measured after 24 hrs by ELISA analysis relative to Forsythin; type: functional; conditions: time 25 hrs
[29] = tested on: RAW264.7; test: Antiinflammatory activity in mouse RAW264.7 cells assessed as reduction in LPS-induced NO release preincubated with compound for 1 hr followed by LPS-induction and measured after 24 hrs by ELISA analysis relative to control; type: functional, cell-based
[30] = tested on: Mus musculus; test: Antiinflammatory activity in LPS-induced acute lung injury BALB/c mouse model assessed as reduction in NO production in BALF at 5 to 20 mg/kg, po administered for 3 days followed by LPS-induction for 1 hr and measured after 6 hrs by Griess reagent based analysis; type: functional, organism-based; conditions: dose 5-20 mg/kg, time 79.0 hrs

SMILES: COc1ccc([C@@H]2OC[C@H]3[C@@H]2CO[C@@H]3c2ccc(O[C@H]3O[C@H](COC(=O)c4cn(-c5ccc(Cl)cc5)nn4)[C@@H](O)[C@H](O)[C@H]3O)c(OC)c2)cc1OC
- Activity [1]: Non-Toxic

SMILES: COc1ccc([C@H]2OC[C@@H]3[C@H]2CO[C@@H]3c2ccc(O[C@@H]3O[C@@H](COC(=O)c4cc5ccccc5cn4)[C@H](O)[C@@H](O)[C@@H]3O)c(OC)c2)cc1OC (stereo in doubt)
- Activity [1]: Non-Toxic

SMILES: COc1ccc([C@@H]2OC[C@H]3[C@@H]2CO[C@@H]3c2ccc(O[C@H]3O[C@H](COC(=O)c4cn(-c5ccc(C)cc5)nn4)[C@@H](O)[C@H](O)[C@H]3O)c(OC)c2)cc1OC
- Activity [1]: Non-Toxic

SMILES: COc1ccc(/C=C/C(=O)OC[C@H]2O[C@H](Oc3ccc([C@H]4OC[C@H]5[C@@H]4CO[C@H]5c4ccc(OC)c(OC)c4)cc3OC)[C@H](O)[C@@H](O)[C@@H]2O)cc1
- Activity [1]: Non-Toxic

SMILES: COc1ccc([C@H]2OC[C@@H]3[C@H]2CO[C@@H]3c2ccc(O[C@@H]3O[C@@H](COC(=O)c4cccc5ncccc45)[C@H](O)[C@@H](O)[C@@H]3O)c(OC)c2)cc1OC (stereo in doubt)
- Activity [1]: Non-Toxic

SMILES: COc1ccc([C@@H]2OC[C@H]3[C@@H]2CO[C@@H]3c2ccc(O[C@H]3O[C@H](COC(=O)[C@H](Cc4ccccc4)NC(=O)OC(C)(C)C)[C@@H](O)[C@H](O)[C@H]3O)c(OC)c2)cc1OC
- Activity [2]: Active
- Activity [3]: Active
- Activity [1]: Non-Toxic
- Activity [4]: Active
- Activity [5]: Active
- Activity [6]: Active
- inhibition at 25 µM [7]: 91.8%
- Activity [8]: Dose-Dependent Effect
- Activity [9]: Active
- inhibition [10]: Active
- Activity [11]: Active
- Activity [12]: inactive
- Activity [13]: Dose-Dependent Effect
- Activity [14]: Active
- IC50 [15]: 4.93 µM
- Activity [16]: Active
- Activity [17]: Dose-Dependent Effect
- inhibition [18]: Active
- IC50 [19]: > 25 µM
- Activity [20]: Active
- Activity [21]: Dose-Dependent Effect
- Activity [22]: Active
- inhibition [23]: Active
- Activity [24]: Active
- inhibition [25]: Active
- Activity [26]: Active
- Activity [27]: Active
- fold change (FC) [28]: 7.5
- IC50 [29]: 10.9 µM
- Activity [30]: Active

SMILES: COc1ccc([C@@H]2OC[C@H]3[C@@H]2CO[C@@H]3c2ccc(O[C@H]3O[C@H](COC(=O)[C@H](CCSC)NC(=O)OC(C)(C)C)[C@@H](O)[C@H](O)[C@H]3O)c(OC)c2)cc1OC
- Activity [1]: Non-Toxic

SMILES: COc1ccc([C@@H]2OC[C@H]3[C@@H]2CO[C@@H]3c2ccc(O[C@H]3O[C@H](COC(=O)CNC(=O)OC(C)(C)C)[C@@H](O)[C@H](O)[C@H]3O)c(OC)c2)cc1OC
- Activity [1]: Non-Toxic
